This passage reports IC50 results from ChEMBL document CHEMBL5537150, “Synthesis of melampomagnolide B derivatives as potential anti-Triple Negative Breast Cancer agents” (Eur J Med Chem, 2024).

The test concerns MDA-MB-231. The test can be described thus: Antiproliferative activity against human MDA-MB-231 cells assessed as inhibition of cell growth incubated for 72 hrs by MTT assay. The test is classed as functional, cell-based. Conditions: MDA-MB-231, 72 h.

As usually defined, the IC50 is the concentration that gives 50% inhibition.

Regarding `C=C1C(=O)O[C@H]2[C@H]1C(COC(=O)CC1(CC(=O)O)CCCC1)C/C=C\CC[C@@]1(C)O[C@@H]21` (some centres not stated), the IC50 turned out to be 35.8 µM. For `C=C1C(=O)O[C@H]2[C@H]1C(COC(=O)CC1(CC(=O)Oc3ccc(-c4cc(=S)ss4)cc3)CCCC1)C/C=C\CC[C@@]1(C)O[C@@H]21` (some centres not stated), the IC50 came out at 2.11 µM. As for `C=C1C(=O)O[C@H]2[C@H]1C(COC(=O)CC(C)(C)CC(=O)O)C/C=C\CC[C@@]1(C)O[C@@H]21` (some centres not stated), the IC50 was 36.4 µM. As to `C=C1C(=O)O[C@H]2[C@H]1C(COC(=O)/C=C/c1ccc(OCc3ccc(-c4cc(=S)ss4)cc3)cc1)C/C=C\CC[C@@]1(C)O[C@@]21C` (some centres not stated), the IC50 amounted to 6.11 µM. Next, `C=C1C(=O)O[C@H]2[C@H]1C(COC(=O)CCC(=O)O)C/C=C\CC[C@@]1(C)O[C@@]21C` (some centres not stated): greater than 50 µM; `C=C1C(=O)O[C@H]2[C@H]1C(COC(=O)c1cc3ccccc3cc1C(=O)O)C/C=C\CC[C@@]1(C)O[C@@H]21` (some centres not stated): 4.96 µM. For `C=C1C(=O)O[C@H]2[C@H]1C(COC(=O)c1ccccc1C(=O)Oc1ccc(-c3cc(=S)ss3)cc1)C/C=C\CC[C@@]1(C)O[C@@H]21` (some centres not stated), the IC50 is 2.91 µM. Next, `C=C1C(=O)O[C@H]2[C@H]1C(COC(=O)CCC(=O)Oc1ccc(-c3cc(=S)ss3)cc1)C/C=C\CC[C@@]1(C)O[C@@H]21` (some centres not stated): 4.34 µM; `C=C1C(=O)O[C@H]2[C@H]1C(COC(=O)CCCC(=O)O)C/C=C\CC[C@@]1(C)O[C@@H]21` (some centres not stated): greater than 50 µM; `C=C1C(=O)O[C@H]2[C@H]1CC/C(C(=O)Oc1ccc(-c3cc(=S)ss3)cc1)=C\CC[C@@]1(C)O[C@@H]21`: 1.39 µM. Next, `Oc1ccc(-c2cc(=S)ss2)cc1`: greater than 50 µM.

With `C=C1C(=O)O[C@H]2[C@H]1CC/C(C(=O)OCCCCOc1ccc(-c3cc(=S)ss3)cc1)=C\CC[C@@]1(C)O[C@@H]21`, the IC50 amounted to 2.47 µM.
